Test results reported in patent US8383814B2, “Substituted tetrahydropyran spiro pyrrolidinone and piperidinone, preparation and therapeutic use thereof” (Sanofi, priority 2008, dated 2013).

Experiments:
rhesus H3 receptor = test: GTPγS radioligand binding assay: inhibition of rhesus H3 constitutive functional activity in cell membranes (inverse agonism); assay type: biochemical, rhesus monkey (Macacca Mulatta); parameters: concentration or dose not given beside the values; details: negative value = below basal level
Method: (§1) Rhesus H3 membranes were prepared from the Flp-In T-REx 293 Cell Line (Invitrogen) stably transfected with pcDNA5/FRT/TO (Invitrogen) containing the rhesus monkey (Macacca Mulatta) 445 amino acid H3 receptor. (Genbank #AY231164). Stably transfected cultures were amplified in tissue culture flasks by standard tissue culture methods and induced to express rhesus H3 by exposure to 500 ng/ml tetracycline (Cellgro) for 24 hours. After induction, cells were dissociated from flasks utilizing Cell Stripper (Cellgro). Cells were centrifuged (1K×g, 5 min) and pellet frozen in an ethanol-dry ice bath to disrupt cell membranes. Frozen cell pellet was re-suspended in 5 mM HEPES (pH 7.4, Invitrogen) at 10 ml/1000 cm2 of harvested cells. The cell suspension was drawn through an 18 gauge needle (2-3×) followed by a 23 gauge needle (2-3×) to further disrupt cell membranes. The cell suspension was centrifuged (40K×g, 30 min). Cell membrane pellet was re-suspended in 5 mM HEPES (pH 7.4, Invitrogen) at a final protein concentration of 10 mg/ml. Rhesus H3 membranes were stored under liquid nitrogen prior to use in [3H]-Methylhistamine and GTP S radioligand binding assays.

[1] = biological target: T1, rhesus (Macacca Mulatta) H3 receptor (Macaca mulatta, UniProt Q865E1); test: Rhesus H3 radioligand binding assay ([3H]-methylhistamine displacement, WGA SPA beads); parameters: species or system rhesus monkey (Macacca Mulatta); details: [3H]-methylhistamine 2 nM; membranes of Flp-In T-REx 293 cells expressing rhesus H3; Cheng-Prusoff
T1 construct: pcDNA5/FRT/TO (Invitrogen) containing the rhesus monkey (Macacca Mulatta) 445 amino acid H3 receptor
Method: as §1
Rhesus H3 radioligand binding assay was performed using rhesus H3 receptor membranes (prepared as described above), [3H]-Methylhistamine (Perkin Elmer) and WGA SPA beads (wheat germ agglutinin scintillation proximity assay) beads (Amersham). The assay was performed in 96-well Opti-Plates (Packard). Each reaction contained 50 μl rhesus H3 membranes (20-30 μg total protein), 50 μl WGA SPA beads (0.1 μg) and 50 μl of 83 Ci/mmol [^3H]-Methylhistamine (final concentration 2 nM) and 50 μl of tested compound. The compounds of this invention and/or vehicle were diluted with binding buffer from 10 mM DMSO stocks. Assay plates were sealed with TopSeal (Perkin Elmer) and mixed on shaker (25° C., 1 hour). Assay plates were read on TopCount scintillation counter (Packard). Results were analyzed by Hill transformation and Ki values were determined by Cheng-Prusoff equation.

T1 sequence (Q865E1 1-445): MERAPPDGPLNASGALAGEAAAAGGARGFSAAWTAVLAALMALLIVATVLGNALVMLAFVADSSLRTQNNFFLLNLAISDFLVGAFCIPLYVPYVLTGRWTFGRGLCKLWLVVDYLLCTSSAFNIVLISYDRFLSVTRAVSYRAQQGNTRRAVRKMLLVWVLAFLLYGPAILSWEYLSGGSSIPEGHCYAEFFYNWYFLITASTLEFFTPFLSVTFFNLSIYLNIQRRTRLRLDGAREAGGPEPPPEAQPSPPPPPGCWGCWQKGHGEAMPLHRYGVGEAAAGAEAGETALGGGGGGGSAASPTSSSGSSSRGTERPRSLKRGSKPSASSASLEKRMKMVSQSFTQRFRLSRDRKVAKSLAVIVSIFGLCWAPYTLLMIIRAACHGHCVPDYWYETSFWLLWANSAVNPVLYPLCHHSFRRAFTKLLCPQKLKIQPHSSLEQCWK

Ki [1] [nM] | Structure (SMILES) | Inverse Agonism: % inhibition of Basal GTPγS binding in Rhesus H3 (rhesus H3 receptor) [%]
0.93 | Cc1cc(N2CC[C@H](N3CCC[C@@H]3C)C2)ccc1N1CCC2(CCOCC2)C1=O [Example 1, 2-[2-Methyl-4-((2S,3′S)-2-methyl-[1,3′]bipyrrolidinyl-1′-yl)-phenyl]-8-oxa-2-aza-spiro[4.5]decan-1-one] | −25
0.38 | Cc1cc(N2CC[C@H](N3CCC[C@@H]3C)C2)ccc1N1CCCC2(CCOCC2)C1=O [Example 2, 2-[2-Methyl-4-((2S,3′S)-2-methyl-[1,3′]bipyrrolidinyl-1′-yl)-phenyl]-9-oxa-2-aza-spiro[5.5]undecan-1-one] | −9
0.63 | C[C@H]1CCCN1[C@H]1CCN(c2ccc(N3CCC4(CCOCC4)C3=O)cc2)C1 [Example 3, 2-[4-((2S,3′S)-2-Methyl-[1,3′]bipyrrolidinyl-1′-yl)-phenyl]-8-oxa-2-aza-spiro[4.5]decan-1-one] | −26
2.1 | C[C@H]1CCCN1[C@H]1CCN(c2ccc(N3CCC4(CCOCC4)C3=O)cc2F)C1 [Example 4, 2-[3-Fluoro-4-((2S,3′S)-2-methyl-[1,3′]bipyrrolidinyl-1′-yl)-phenyl]-8-oxa-2-aza-spiro[4.5]decan-1-one] | −31
0.7 | Cc1cc(N2CCC(N3CCC[C@@H]3C)CC2)ccc1N1CCC2(CCOCC2)C1=O [Example 5, 2-{2-Methyl-4-[4-((2S,3′S)-2-methyl-pyrrolidin-1-yl)-piperidin-1-yl]-phenyl}-8-oxa-2-aza-spiro[4.5]decan-1-one] | −11
38 | Cc1cc(N2CC[C@H](N3CCC[C@H]3C)C2)ccc1N1CCC2(CCOCC2)C1=O [Example 6] | −36
5.2 | CCC1CCCN1C1CCN(c2ccc(N3CCC4(CCOCC4)C3=O)c(F)c2)C1 (stereo not drawn) [Example 7, 2-[4-(2-Ethyl-[1,3′]bipyrrolidinyl-1′-yl)-2-fluoro-phenyl]-8-oxa-2-aza-spiro[4.5]decan-1-one] | −35
76 | CC(C)C1CCCN1C1CCN(c2ccc(N3CCC4(CCOCC4)C3=O)c(F)c2)C1 (stereo not drawn) [Example 8, 2-[2-Fluoro-4-(2-isopropyl-[1,3′]bipyrrolidinyl-1′-yl)-phenyl]-8-oxa-2-aza-spiro[4.5]decan-1-one] | −22
170 | CCCC1CCCN1C1CCN(c2ccc(N3CCC4(CCOCC4)C3=O)c(F)c2)C1 (stereo not drawn) [Example 9, 2-[2-Fluoro-4-(2-propyl-[1,3′]bipyrrolidinyl-1′-yl)-phenyl]-8-oxa-2-aza-spiro[4.5]decan-1-one] | −30
0.16 | C[C@H]1CCCN1C1CCN(c2ccc(N3CCC4(CCOCC4)C3=O)c(F)c2)CC1 [Example 10, 2-{2-Fluoro-4-[4-((2S,3′S)-2-methyl-pyrrolidin-1-yl)piperidin-1-yl]-phenyl}-8-oxa-2-aza-spiro[4.5]decan-1-one] | −33
0.45 | C[C@H]1CCCN1[C@H]1CCN(c2ccc(N3CCC4(CCOCC4)C3=O)c(F)c2)C1 [Example 11, 2-[2-Fluoro-4-((2S,3′S)-2-methyl-[1,3′]bipyrrolidinyl-1′-yl)-phenyl]-8-oxa-2-aza-spiro[4.5]decan-1-one] | −11
0.45 | C[C@H]1CCCCN1C1CCN(c2ccc(N3CCC4(CCOCC4)C3=O)c(F)c2)CC1 [Example 12, 2-[2-Fluoro-4-((2S,3′S)-2-methyl-[1,4]bipiperidinyl-1′-yl)-phenyl]-8-oxa-2-aza-spiro[4.5]decan-1-one] | −22
16 | CC(C)C1CCCN1C1CCN(c2ccc(N3CCC4(CCOCC4)C3=O)cc2)CC1 (stereo not drawn) [Example 13, 2-{4-[4-(2-Isopropyl-pyrrolidin-1-yl)-piperidin-1-yl]-phenyl}-8-oxa-2-aza-spiro[4.5]decan-1-one] | −22
13 | CCCC1CCCN1C1CCN(c2ccc(N3CCC4(CCOCC4)C3=O)cc2)CC1 (stereo not drawn) [Example 14, 2-{4-[4-(2-Propyl-pyrrolidin-1-yl)-piperidin-1-yl]-phenyl}-8-oxa-2-aza-spiro[4.5]decan-1-one] | −33
190 | COCC1CCCN1C1CCN(c2ccc(N3CCC4(CCOCC4)C3=O)cc2)C1 (stereo not drawn) [Example 15, 2-[4-(2-Methoxymethyl-[1,3′]bipyrrolidinyl-1′-yl)-phenyl]-8-oxa-2-aza-spiro[4.5]decan-1-one] | −26
0.52 | C[C@H]1CCCN1C1CCN(c2ccc(N3CCC4(CCOCC4)C3=O)cc2)CC1 [Example 16, 2-{4-[4-((2S,3′S)-2-Methyl-pyrrolidin-1-yl)-piperidin-1-yl]-phenyl}-8-oxa-2-aza-spiro[4.5]decan-1-one] | −29
2.5 | C[C@H]1CCCN1[C@H]1CCN(c2ccc(N3CCCC4(CCOCC4)C3=O)cc2F)C1 [Example 17, 2-[3-Fluoro-4-(2-methyl-[1,3′]bipyrrolidinyl-1′-yl)-phenyl]-9-oxa-2-aza-spiro[5.5]undecan-1-one] | −16
4.3 | CCC1CCCN1C1CCN(c2ccc(N3CCC4(CCOCC4)C3=O)c(C(F)(F)F)c2)CC1 (stereo not drawn) [Example 18, 2-{4-[4-(2-Ethyl-pyrrolidin-1-yl)-piperidin-1-yl]-2-trifluoromethyl-phenyl}-8-oxa-2-aza-spiro[4.5]decan-1-one] | −35
100 | CC(C)C1CCCN1C1CCN(c2ccc(N3CCC4(CCOCC4)C3=O)c(C(F)(F)F)c2)CC1 (stereo not drawn) [Example 19, 2-{4-[4-(2-Isopropyl-pyrrolidin-1-yl)-piperidin-1-yl]-2-trifluoromethyl-phenyl}-8-oxa-2-aza-spiro[4.5]decan-1-one] | −8
650 | CCCC1CCCN1C1CCN(c2ccc(N3CCC4(CCOCC4)C3=O)c(C(F)(F)F)c2)C1 (stereo not drawn) [Example 20, 2-[4-(2-Propyl-[1,3′]bipyrrolidinyl-1′-yl)-2-trifluoromethyl-phenyl]-8-oxa-2-aza-spiro[4.5]decan-1-one] | −12
0.42 | C[C@H]1CCCN1C1CCN(c2ccc(N3CCC4(CCOCC4)C3=O)c(C(F)(F)F)c2)CC1 [Example 21, 2-{4-[4-((2S,3′S)-2-Methyl-pyrrolidin-1-yl)-piperidin-1-yl]-2-trifluoromethyl-phenyl}-8-oxa-2-aza-spiro[4.5]decan-1-one] | −19
8.6 | C[C@H]1CCCN1[C@H]1CCN(c2ccc(N3CCC4(CCOCC4)C3=O)c(C(F)(F)F)c2)C1 [Example 22, 2-[4-((2S,3′S)-2-Methyl-[1,3′]bipyrrolidinyl-1′-yl)-2-trifluoromethyl-phenyl]-8-oxa-2-aza-spiro[4.5]decan-1-one] | −21
0.13 | CCc1cc(N2CCC(N3CCC[C@@H]3C)C2)ccc1N1CCC2(CCOCC2)C1=O (stereo partly drawn) [Example 26] | 
